Consider 72 molecules from PubChem BioAssay AID179 (DTP/NCI, 2004).

Molecules are shown by their SMILES. Several values for one entry are separate records, joined by “and”; a condition that tells them apart may be missing. Identical values can stand only once. Activity calls are given as the source filed them.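 How the source made its calls: active means compounds giving half or more protection of infected cells from virus-caused growth loss, again on retest; inactive means the rest.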 Where a SMILES comes first, the peptide text is derived from it. Bridges are numbered along the chain shown (N, C = ends). The star is where a group is joined. Cbz = O=C(OCc1ccccc1)*

This assay concerns CEM cells HIV-1 protection, formazan growth assay. The assay can be described thus: NCI AIDS Antiviral Assay. As to conditions: for IC50: measured here: growth of uninfected CEM cells. An outline of the steps: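 Human CEM cells, uninfected and HIV-1-infected, received five drug concentrations, and growth was read by soluble formazan assay. Compounds giving at least 50% protection were retested; reproducible 100% protection defined confirmed active.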

As to `O=C(NC(=O)c1cn(CCN2CCN(C(=O)NCCCCCCNC(=O)N3CCN(CCn4cc(C(=O)NC(=O)OCc5ccccc5)c(=O)[nH]c4=O)CC3)CC2)c(=O)[nH]c1=O)OCc1ccccc1`, the result was inactive.

As usually defined, the EC50 is the midpoint of the concentration-response curve. Broadly, the IC50 is the concentration at which inhibition is half-maximal. A lower IC50 goes with greater potency. As for `C[C@@H]1C(O)CC[C@H](C)C12CC=CC2=O` (stereo partly drawn), the EC50 is greater than 200 µM and the IC50 was greater than 200 µM.

Consider `O=S(=O)(Nc1nnc2c3ccccc3ccn12)c1ccc(F)cc1S`, for which the EC50 is 214 µM and the IC50 came out at 251 µM.

With `O=C(CCC(=O)Nc1ccc(Cl)cc1)CC(=O)c1ccc2ccccc2c1`, the EC50 is greater than 245 µM and the IC50 is greater than 245 µM.

Consider `NC(=O)CNC(=O)c1ccccc1SC(=O)CCC[n+]1ccccc1`, for which the EC50 was 1.17 µM and the IC50 was determined as 25.7 µM.

Turning to `CCC(C)N1CN(c2ccccc2)C2(CCN(CCCC3(c4ccc(F)cc4)OCCO3)CC2)C1=O` (stereo not drawn), the EC50 is greater than 200 µM and the IC50 amounted to 6.92 µM.

In the case of `CCCCc1c2c(nc3c1CCc1cc4cc5c(nc4nc1-3)-c1nc3c(c(CCCC)c1CC5)CCCC3=O)C(=O)CCC2`, the EC50 is greater than 100 µM and the half-inhibitory concentration (IC50) turned out to be 0.457 µM.

With `O=C1C=C(Nc2ccc(Cl)cc2Cl)C(=O)C=C1Nc1ccc(Cl)cc1Cl`, the EC50 is greater than 200 µM and the IC50 is greater than 200 µM.

In the case of `COc1ccc(OC)c(NC(=O)C(=O)NNC(=O)c2sc(NNC(C)=O)nc2C)c1`, the outcome was inactive.

As to `Cc1cccc(C)c1NC(=O)/C(Cc1nc2ccc([N+](=O)[O-])cc2[nH]c1=O)=N\NC(N)=O`, the EC50 is greater than 417 µM and the IC50 turned out to be 126 µM.

In the case of `Cc1c(C)c2c(c(N)c1C#N)C(=O)N(Nc1ccccc1)C2=O`, the EC50 is greater than 200 µM and the IC50 was 79.4 µM.

`COC(=O)CNC(=O)CNC(=O)CSc1nnc(COc2ccc(Cl)cc2)n1-c1ccccc1`: the EC50 was greater than 200 µM and the half-maximal inhibitory concentration (IC50) is 30.9 µM.

Consider `CCC[N+]12CC=C(CO)C1C(O)CC2` (stereo not drawn), for which the EC50 was greater than 891 µM and the IC50 was greater than 891 µM.

For the molecule `O=C(O)C[n+]1ccccc1`, the EC50 was 148 µM and the IC50 was greater than 200 µM.

Regarding `CCOC(=O)c1cc2sc(NC(=O)c3cccs3)nc2o1`, the outcome was inactive.

Take `CC[C@]1(Cc2ccc(OC)c(OC)c2)C=[N+]([O-])O[C@H](OCc2ccccc2)[C@@H]1OC(C)=O`: the EC50 is greater than 200 µM and the IC50 was 38 µM.

In the case of `CCN(CC)CCOC(=O)OCCCCOC(=O)OCCN(CC)CC`, the EC50 is greater than 200 µM and the IC50 is greater than 200 µM.

In the case of `Cc1ccc(NC(=O)/C(CC2N=c3c(ccc4c(O)c5ccccc5c(O)c34)=NC2O)=N/NC(C)(C)C)cc1` (stereo not drawn), the EC50 is greater than 10 µM and the IC50 is greater than 10 µM.

`C/C(CC(=O)Nc1ccc([N+](=O)[O-])cc1)=N\Nc1ccc([N+](=O)[O-])cc1[N+](=O)[O-]`: the EC50 was greater than 24.5 µM and the IC50 was greater than 24.5 µM.

On to `CCOC(=O)C(C)(C(=O)OCC)/C(Cl)=C\Cl`, for which the EC50 was greater than 200 µM and the IC50 is greater than 200 µM.

For the molecule `CC(C)CCC[C@@H](C)C1CCC2[C@@H]3CC(OS(=O)(=O)O)C4C[C@@H](O)CC[C@]4(C)C3CC[C@@]21C` (stereo partly drawn), the EC50 was greater than 49 µM and the IC50 is greater than 49 µM.

With `CC(C)OC(=S)SSC(=S)NCCNC(=S)SSC(=S)OC(C)C`, the EC50 was greater than 200 µM and the IC50 was determined as 9.77 µM.

With `O=C(NNc1cn[nH]c(=O)c1Cl)/C(=C/c1ccc2c(c1)OCO2)NC(=O)c1ccccc1`, the EC50 is greater than 200 µM and the IC50 was determined as 162 µM.

As for `O=C1N=C2SC=C(NC(=S)Nc3ccccc3)N2NC12c1ccccc1-c1ccccc12`, the EC50 is greater than 200 µM and the IC50 worked out at 74.1 µM.

`O=C(O)CSc1n[nH]c(=S)c2nc[nH]c12`: the EC50 is greater than 537 µM and the IC50 was greater than 537 µM.

On to `O=C1C=CC=C/C1=C1/SC(c2ccccc2)=C(O)N1c1ccccc1`, for which the outcome was inactive.

Turning to `O=C1OC(=O)c2cc(S(=O)(=O)c3ccc4c(c3)C(=O)OC4=O)ccc21`, the EC50 was greater than 200 µM and the IC50 is greater than 200 µM.

With `Cc1ccc(/C=c2\cc3oc(=O)c4cccc(c4-3)c2=O)cc1`, the EC50 was greater than 200 µM and the IC50 came out at 3.8 µM.

In the case of `Cc1cccc(C)c1NC(=O)C1C(=O)N(c2c(C)cccc2C)C(=O)/C1=N\NC(N)=S` (stereo not drawn), the EC50 was greater than 22.9 µM and the IC50 was greater than 22.9 µM.

As for `O=C(Nc1cccc2nsnc12)c1ccc(C(=O)Nc2cccc3nsnc23)cc1`, the EC50 is greater than 22.9 µM and the IC50 is greater than 22.9 µM.

`CC(C)(C)C1=C(Br)C(Br)(C(C)(C)C)OP1(=O)c1ccccc1` (stereo not drawn): the EC50 is greater than 200 µM and the IC50 is greater than 200 µM.

Consider `COc1nc2ncc([C@@H](O)[C@H](O)CO)nc2c(=O)n1C`, for which the EC50 is greater than 200 µM and the IC50 was greater than 200 µM.

For `C[N+](C)([O-])CCCNc1ccnc2cccc([N+](=O)[O-])c12`, the EC50 is greater than 200 µM and the IC50 was determined as 27.5 µM.

Consider `COC1=CC(=O)c2nc(COC(C)=O)ccc2C1=O`, for which the result was inactive.

Consider `Nc1nc(-c2ccc(Cl)cc2)nc2sc3c(c12)CCCCC3`, for which the EC50 was greater than 30.2 µM and the IC50 is greater than 30.2 µM.

On to `C=CCC12CC(COc3ccccc3C(N)=O)OC1=Nc1ccccc1NC2=O` (stereo not drawn), for which the EC50 was greater than 200 µM and the IC50 is greater than 200 µM.

On to `C=CCOC(C)n1c(C)cc(=O)n(C(C)OCC=C)c1=O` (stereo not drawn), for which the EC50 was greater than 200 µM and the IC50 was greater than 200 µM.

In the case of `CC(=O)/C(=C/n1ccc(=O)[nH]c1=S)C(=O)Nc1ccc(Cl)cc1`, the EC50 was greater than 200 µM and the IC50 was 155 µM.

Take `O=c1c(O)c(-c2ccc(O)c(O)c2)oc2cc(O)cc(O)c12.[Zr]`: the EC50 is greater than 200 µM and the IC50 is greater than 200 µM.

For `Cc1cc(NC[C@H](O)[C@H](O)[C@H](O)CO)c(Sc2cc(=O)[nH]c(=O)[nH]2)cc1C`, the outcome was inactive.

Turning to `CC(C)N1C(=O)C(C#N)=C(c2ccccc2)SC1c1ccccc1` (stereo not drawn), the EC50 is greater than 30.2 µM and the IC50 is greater than 30.2 µM.

`CCN(CC)c1ccc2cc(S(=O)(=O)c3ccccc3)c(=O)oc2c1`: the outcome was inactive.

Regarding `Nc1cc(C(=O)O)ccc1SSc1ccc(C(=O)O)cc1N`, the EC50 is 93.3 µM and the IC50 was greater than 200 µM.

For `CC1=C(C2CC(C)CC(OCOCc3ccccc3)O2)C(C)(C)CCC1` (stereo not drawn), the EC50 was greater than 20 µM and the IC50 is greater than 20 µM.

As to `Cc1ccc(S(=O)(=O)c2ccccc2[N+](=O)[O-])cc1`, the EC50 is 14.5 µM and the IC50 was 81.3 µM.

Consider `O=c1sc2ccccc2c2c1C=CCO2`, for which the EC50 was greater than 46.8 µM and the IC50 is greater than 46.8 µM.

For `CC(C)CC(F)(C(N)=O)C(N)=O`, the EC50 is greater than 200 µM and the IC50 is greater than 200 µM.

Regarding `C[C@H](N)C(=O)N[C@@H]1[C@H]2C(=C(O)C[C@@H](O)[C@@H]2O)C(=O)O[C@@H]1C`, the result was inactive.

As for `COC1N(C2CC(F)C(CO)O2)C(=O)NC(=O)C1(C)I` (stereo not drawn), the EC50 is 0.00339 µM; the result was active; the IC50 is 57.5 µM and 6.17 µM.

With `CNC(=O)C1CCCCNC(=O)CCC(NC(=O)OCc2ccccc2)C(=O)N1` (stereo not drawn) (Cbz-Glu-Lys-NHMe; lactam 1-2; configuration not given here), the EC50 was greater than 200 µM and the IC50 was greater than 200 µM.

Take `C(=N\Nc1ccc2ccccc2n1)/c1ccccn1`: the EC50 was greater than 20 µM and the IC50 came to 1.1 µM.

As to `NS(=O)(=O)c1ccc(Nc2c3ccccc3nc3c(C(=O)N4CCN(CCO)CC4)ccc(Cl)c23)cc1`, the EC50 was greater than 49 µM and the IC50 is greater than 49 µM.

In the case of `CCC1=NC(N/N=C/c2ccccc2O)=N/C1=C\c1ccccc1O`, the EC50 was greater than 50.1 µM and the IC50 was determined as 9.12 µM.

As to `C=CCN(N=O)C(=O)N(CCCCC(NC(C)=O)C(=O)NCc1ccccc1)Cc1ccccc1` (stereo not drawn), the EC50 is greater than 28.2 µM and the IC50 was greater than 28.2 µM.

As for `CC(C)=CCCC(O)C1CCC2C3CCC4CCCCC4(C)C3CCC12C` (stereo not drawn), the EC50 was greater than 100 µM and the IC50 was 87.1 µM.

As to `O=c1[nH]c(-c2ccccc2)nc2ccc(Cl)cc12`, the outcome was inactive.

On to `CCOC(=O)C(C/C(C)=C/c1ccccc1)C(=O)OCC`, for which the EC50 is greater than 200 µM and the IC50 turned out to be 182 µM.

As to `O=C1Nc2noc(=O)nc2NO1`, the EC50 is greater than 200 µM and the IC50 was greater than 200 µM.

For the molecule `CCCCSCc1nc2ccccc2c(C)[n+]1[O-]`, the EC50 was 234 µM and the IC50 was determined as 437 µM.

Consider `COc1ccc(-c2cc(C(=O)Nc3cccc(C(F)(F)F)c3)[nH]c(=S)n2)cc1`, for which the EC50 was greater than 162 µM and the IC50 is greater than 162 µM.

For the molecule `COc1cc2c(cc1OC)C(C#N)C2` (stereo not drawn), the EC50 is 1050 µM and the IC50 is 1320 µM.

For `CC1(C)OC2OC(C(=O)c3ccccc3)C3OC(C)(C)OC3C2O1` (stereo not drawn), the outcome was inactive.

For `NC(=S)N/N=C\C12CC3CC(CC(C3)C1)C2`, the result was inactive.

In the case of `CCCCCCCCCCNC(C)=O`, the EC50 was greater than 200 µM and the IC50 was found to be 85.1 µM.

In the case of `CC(C)(C)C1=Cc2cc3cc(C(C)(C)C)[nH]c(=O)c3cc2S(=O)(=O)N1`, the EC50 was greater than 7.59 µM and the IC50 is greater than 7.59 µM.

Take `CCCCCCCCCCCc1c2oc3ccc([N+](=O)[O-])cc3nc-2cc(Nc2cc([N+](=O)[O-])ccc2O)c1=O`: the EC50 is greater than 3.31 µM and the IC50 was greater than 3.31 µM.

With `CC(C)(C)N1NC1C1NN1C(C)(C)C` (stereo not drawn), the EC50 is greater than 200 µM and the IC50 was greater than 200 µM.

As to `COc1ccc(OC)c(/C=C/c2ccc3ccccc3n2)c1`, the EC50 was greater than 24.5 µM and the IC50 was greater than 24.5 µM.

As to `c1nc2c([nH]1)CCNC2c1ccc2c(c1)OCO2` (stereo not drawn), the result was inactive.

Take `O[C@]12C=C[C@H](CCCC1)O2`: the EC50 is greater than 200 µM and the IC50 amounted to 50.1 µM.

Take `Cc1ccc2c(c1)C(O)(c1ccccc1)C(c1ccccc1)C(c1ccccc1)O2` (stereo not drawn): the EC50 was greater than 200 µM and the IC50 is 6.92 µM.

As to `C[C@@H](NC(=O)c1ccccc1SC(=O)OCCCCCl)C(N)=O`, the EC50 worked out at 2.4 µM and the IC50 turned out to be 195 µM.
